The numbers were not newly measured in US10112976B2, “Process for the production of D-arginyl-2,6-dimethyl-L-tyrosyl-L-lysyl-L-phenylalaninamide” (Flamma S.P.A., priority 2014, dated 2018), which cites them from elsewhere.

For series [1], the system named is inner mitochondrial membrane.
Series [2] concerns G93A mouse model of amyotrophic lateral sclerosis. Particulars: 5 mg/kg/day i.p. starting at 30 days of age.
In a further series the test system is N2A neuronal cell line. To be noted: <1 nM; N2A cells.
In the next series the target is mu-opioid receptor (Homo sapiens, UniProt P35372). Particulars: as stated for WO 2013/086020, WO 2004/070054, WO 2005/072295.
Series [3] has as its system SH—SY5Y neuronal cell line. Particulars: <1 nM; SH—SY5Y cells.
In the next series the test system is mouse pancreatic islets. Particulars: 3 mg/kg i.p. qd for 2 weeks.
In series [4] the test system is rats with unilateral ureteral obstruction. Particulars: intraperitoneal 1 and 3 mg/kg, 1 day prior to obstruction and every day for 14 days.

Non-standard residues stand in square brackets, D forms with d. Residues, ends and D or L forms follow the SMILES beside them. Dmt = Cc1cc(O)cc(C)c1C[C@H](N)C(=O)O

Chain of mu-opioid receptor (P35372 whole entry): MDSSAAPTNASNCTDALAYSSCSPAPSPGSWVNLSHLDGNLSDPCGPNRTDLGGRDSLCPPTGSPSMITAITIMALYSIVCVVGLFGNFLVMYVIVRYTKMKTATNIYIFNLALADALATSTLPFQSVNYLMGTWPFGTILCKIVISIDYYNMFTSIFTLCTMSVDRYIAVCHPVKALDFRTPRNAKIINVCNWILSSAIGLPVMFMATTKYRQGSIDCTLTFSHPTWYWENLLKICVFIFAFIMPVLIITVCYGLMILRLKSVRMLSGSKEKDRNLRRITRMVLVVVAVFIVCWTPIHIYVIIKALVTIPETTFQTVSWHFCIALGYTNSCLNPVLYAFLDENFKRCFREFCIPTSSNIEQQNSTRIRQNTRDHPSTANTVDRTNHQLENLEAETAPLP

On to `Cc1cc(O)cc(C)c1C[C@H](NC(=O)[C@H](N)CCCNC(=N)N)C(=O)N[C@@H](CCCCN)C(=O)N[C@@H](Cc1ccccc1)C(N)=O` [D-Arginyl-2,6-dimethyl-L-tyrosyl-L-lysyl-L-phenylalaninamide] (H-[dR][Dmt]KF-NH2), for which the antioxidant activity entry in series [1] is given as “showed antioxidant activity”. Moreover, the disease onset entry in series [2] was “significant delay”. In the series on N2A neuronal cell line, the “intracellular reactive oxygen species” value was “significantly reduced”, the mitochondrial potential entry is given as “increased” and the tBHP-induced apoptosis result is “prevented”. The “mu-opioid receptor agonist activity” value at mu-opioid receptor was “does not have mu-opioid receptor agonist activity”. Besides, in series [3], the “intracellular reactive oxygen species” value is “significantly reduced”, the mitochondrial potential result is given as “increased” and the tBHP-induced apoptosis entry was “prevented”. In addition, in the series on mouse pancreatic islets, the “apoptosis in pancreatic islets caused by streptozotocin” value is listed as “prevented” and the “insulin reduction in pancreatic islets caused by streptozotocin” value is recorded as “prevented”. Moreover, in series [4], the interstitial fibrosis entry was “significantly decreased”, the macrophage infiltration result is recorded as “significantly decreased” and the tubular damage entry is “significantly decreased”.
